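Interpolation was linear, between the two tested concentrations surrounding the appropriate level; five concentrations were tested over 48 hours in 96-well plates. TGI: total growth inhibition.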
Test system: KM12 colon
Assay: NCI tumour cell line growth inhibition, 48 h

Which TGI does the source give for `S=C1NC2=C(CSC/C2=C\c2cccc(Br)c2)C(c2cccc(Br)c2)N1` (stereo unspecified) here?
The TGI was over 100 µM.

With `CCCCCCCCCCCCCCCCNc1cccc2ccccc12` as the compound, how does the TGI read?
Its TGI is over 100 µM.

How did the TGI turn out when `C=C(C(=O)OCC)C(=O)OCC` was run?
Its TGI is over 100 µM.

For `O=C1OCC/C1=N/O`, which TGI is on record?
Its TGI is over 100 µM.

With `CC(O)CNC(=O)C(C)Oc1ccc(OCC2CCCCC2)cc1` (stereo unspecified) as the compound, how does the TGI read?
Its TGI is over 100 µM.

How did the TGI turn out when `CSC1=N/C(=C\c2ccc(C)cc2)C(=O)N1CN1CCCCC1` was run?
Its TGI is over 100 µM.

For `CC(=NNC(=S)Nc1ccccc1)c1cccc(C(C)=NNC(=S)Nc2ccccc2)n1`, which TGI is on record?
The TGI was over 100 µM.

With `Cc1c(/C=N\NC(=S)NCCNC(=S)N/N=C\c2c(C)n(C)n(-c3ccccc3)c2=O)c(=O)n(-c2ccccc2)n1C` as the compound, how does the TGI read?
Its TGI is over 100 µM.

`CC(C)c1cc2c(c(O)c1O)[C@@]1(C(=O)O)CCCC(C)(C)[C@@H]1CC2` was tested. Which TGI did it give?
Its TGI is 27 µM.

Which TGI does the source give for `O=P(O)(O)C(N=C(Nc1ccccc1)Nc1ccccc1)P(=O)(O)O` here?
Its TGI is over 100 µM.

How did the TGI turn out when `Cc1c(O)nc(-n2[nH]c3c(c2=O)CCCC3)[nH]c1=O` was run?
Its TGI is over 100 µM.

`CCCNc1ncnc2c1ncn2C` was tested. Which TGI did it give?
Its TGI is over 100 µM.

Which TGI does the source give for `CCOS(C)(=O)=O` here?
Its TGI is over 100 µM.

`CC(NC(=O)Cc1ccccc1)NC(=O)C(C)C(=O)Nc1ccccc1` (stereo unspecified) was tested. Which TGI did it give?
Its TGI is over 100 µM.

How did the TGI turn out when `CC(C)(C)[Si](C)(C)OCC1OC(n2ccc(=O)[nH]c2=O)C(O[Si](C)(C)C(C)(C)C)/C1=C/C#N` (stereo unspecified) was run?
The TGI was over 42.2 µM.

Which TGI does the source give for `C=C1CC(C#N)(C#N)[C@H]2C3CCCC3C[C@@H]12` (stereo partly specified) (tested in a mixture with another compound) here?
The TGI was 43.3 µM.

How did the TGI turn out when `Nc1ccc(N=Nc2c(S(=O)(=O)O)cc3ccccc3c2S(=O)(=O)O)cc1` was run?
The TGI was over 100 µM.

Test system: NCI-H460 lung
Assay: NCI tumour cell line growth inhibition, 48 h

`CC1=CCC([C@@](C)(O)CCCC(C)(C)N=C=S)CC1` (stereo partly specified) was tested. Which TGI did it give?
Its TGI is 33 µM.

How did the TGI turn out when `N[C@@H](Cc1ccccc1)C(=O)N1CCC[C@@H]1P(=O)(Oc1ccccc1)Oc1ccccc1` was run?
The TGI was over 100 µM.

With `Cc1ccc(/C=N\NC2c3cc(Cl)ccc3Nc3nc(=O)[nH]c(C)c32)cc1` (stereo unspecified) as the compound, how does the TGI read?
Its TGI is over 100 µM.

How did the TGI turn out when `O=c1[nH][nH]c(=O)n1CCCCCCn1c(=O)[nH][nH]c1=O` was run?
The TGI was over 100 µM.

`COc1ccc(-c2nc(SCC(=O)NNC(=S)Nc3ccccc3)[nH]c2-c2ccc(OC)cc2)cc1` was tested. Which TGI did it give?
Its TGI is 32.2 µM.

For `CCCCCC#CCOC(=O)C(=[N+]=[N-])P(=O)(c1ccccc1)c1ccccc1`, which TGI is on record?
Its TGI is over 10 µM.

For `CCOc1cc(/C=C2/C(C)=NN(c3cccc(Cl)c3)/C2=N/c2nc3ccccc3s2)ccc1O`, which TGI is on record?
Its TGI is 64 µM.

For `COc1cc(OC)cc(C(=O)CC(=O)c2cc(OC)cc(OC)c2)c1`, which TGI is on record?
The TGI was over 100 µM.

For `O=C1OC(C2Cc3ccc4ccccc4c3C2=O)c2ccccc21` (stereo unspecified), which TGI is on record?
The TGI was over 100 µM.

How did the TGI turn out when `O=C(O)[C@H]1CCCN1CP(=O)(O)CN1CCC[C@@H]1C(=O)O` was run?
Its TGI is over 100 µM.

For `O=C1c2ccccc2C(=O)N1n1c(Cc2ccc([N+](=O)[O-])cc2)n[nH]c1=O`, which TGI is on record?
The TGI was over 100 µM.

With `COc1ccc(C2OC(c3ccncc3)=NN2C)cc1F` (stereo unspecified) as the compound, how does the TGI read?
Its TGI is over 100 µM.

For `COc1cc2c(cc1OC)C(C(c1ccccc1)c1ccccc1)N(C)CC2` (stereo unspecified), which TGI is on record?
Its TGI is over 100 µM.

How did the TGI turn out when `C[N+](C)([O-])CCOc1cc2c(c3ccccc13)-c1ccccc1C2=O` was run?
Its TGI is 43.2 µM.

With `CCOC(=O)C1S/C(=N\C(=N)N[N+](=O)[O-])N=C1C` (stereo unspecified) as the compound, how does the TGI read?
Its TGI is over 100 µM.

`COC(=O)C(Cc1ccc2c(c1)CCC2)Cc1ccc2c(c1)CCC2` was tested. Which TGI did it give?
Its TGI is over 100 µM.

Which TGI does the source give for `C/C(C[n+]1ccccc1)=N\N=C(N)N` here?
Its TGI is over 100 µM.

With `O=[N+]([O-])C(=C(Nc1cccc2cccnc12)Nc1cccc2cccnc12)C(Cl)=C(Cl)Cl` as the compound, how does the TGI read?
Its TGI is over 100 µM.

With `Cc1nc(C)c(C(=O)NNC(=O)C[N+](C)(C)C)cc1C(=O)NNC(=O)C[N+](C)(C)C` as the compound, how does the TGI read?
The TGI was over 100 µM.

How did the TGI turn out when `S=C1NC2=C(CSC/C2=C\c2cccc(Br)c2)C(c2cccc(Br)c2)N1` (stereo unspecified) was run?
Its TGI is over 100 µM.

With `CCCCCCCCCCCCCCCCNc1cccc2ccccc12` as the compound, how does the TGI read?
The TGI was over 100 µM.

Which TGI does the source give for `C=C(C(=O)OCC)C(=O)OCC` here?
The TGI was over 100 µM.

Which TGI does the source give for `O=C1OCC/C1=N/O` here?
The TGI was over 100 µM.

How did the TGI turn out when `CC(O)CNC(=O)C(C)Oc1ccc(OCC2CCCCC2)cc1` (stereo unspecified) was run?
Its TGI is over 100 µM.

Which TGI does the source give for `CC(=NNC(=S)Nc1ccccc1)c1cccc(C(C)=NNC(=S)Nc2ccccc2)n1` here?
Its TGI is over 56.8 µM.

With `Cc1c(/C=N\NC(=S)NCCNC(=S)N/N=C\c2c(C)n(C)n(-c3ccccc3)c2=O)c(=O)n(-c2ccccc2)n1C` as the compound, how does the TGI read?
Its TGI is over 100 µM.

Which TGI does the source give for `CC(C)c1cc2c(c(O)c1O)[C@@]1(C(=O)O)CCCC(C)(C)[C@@H]1CC2` here?
Its TGI is 50.9 µM.

`O=P(O)(O)C(N=C(Nc1ccccc1)Nc1ccccc1)P(=O)(O)O` was tested. Which TGI did it give?
Its TGI is over 100 µM.

How did the TGI turn out when `Cc1c(O)nc(-n2[nH]c3c(c2=O)CCCC3)[nH]c1=O` was run?
Its TGI is over 100 µM.

With `CCOS(C)(=O)=O` as the compound, how does the TGI read?
Its TGI is over 100 µM.

For `CC(NC(=O)Cc1ccccc1)NC(=O)C(C)C(=O)Nc1ccccc1` (stereo unspecified), which TGI is on record?
The TGI was over 100 µM.

Which TGI does the source give for `CC(C)(C)[Si](C)(C)OCC1OC(n2ccc(=O)[nH]c2=O)C(O[Si](C)(C)C(C)(C)C)/C1=C/C#N` (stereo unspecified) here?
Its TGI is over 100 µM.

Which TGI does the source give for `Nc1ccc(N=Nc2c(S(=O)(=O)O)cc3ccccc3c2S(=O)(=O)O)cc1` here?
Its TGI is over 100 µM.

Test system: SR leukemia
Assay: NCI tumour cell line growth inhibition, 48 h

With `CC1=CCC([C@@](C)(O)CCCC(C)(C)N=C=S)CC1` (stereo partly specified) as the compound, how does the TGI read?
The TGI was 41.7 µM.

For `Cc1ccc(/C=N\NC2c3cc(Cl)ccc3Nc3nc(=O)[nH]c(C)c32)cc1` (stereo unspecified), which TGI is on record?
Its TGI is over 100 µM.

How did the TGI turn out when `O=c1[nH][nH]c(=O)n1CCCCCCn1c(=O)[nH][nH]c1=O` was run?
The TGI was over 100 µM.

`CCCCCC#CCOC(=O)C(=[N+]=[N-])P(=O)(c1ccccc1)c1ccccc1` was tested. Which TGI did it give?
The TGI was over 10 µM.

With `CCOc1cc(/C=C2/C(C)=NN(c3cccc(Cl)c3)/C2=N/c2nc3ccccc3s2)ccc1O` as the compound, how does the TGI read?
Its TGI is 81.1 µM.

How did the TGI turn out when `COc1cc(OC)cc(C(=O)CC(=O)c2cc(OC)cc(OC)c2)c1` was run?
The TGI was over 100 µM.

For `O=C1OC(C2Cc3ccc4ccccc4c3C2=O)c2ccccc21` (stereo unspecified), which TGI is on record?
The TGI was over 100 µM.

`O=C1c2ccccc2C(=O)N1n1c(Cc2ccc([N+](=O)[O-])cc2)n[nH]c1=O` was tested. Which TGI did it give?
The TGI was over 100 µM.

For `CCOC(=O)C1S/C(=N\C(=N)N[N+](=O)[O-])N=C1C` (stereo unspecified), which TGI is on record?
The TGI was over 100 µM.

Which TGI does the source give for `COC(=O)C(Cc1ccc2c(c1)CCC2)Cc1ccc2c(c1)CCC2` here?
The TGI was over 100 µM.

For `O=[N+]([O-])C(=C(Nc1cccc2cccnc12)Nc1cccc2cccnc12)C(Cl)=C(Cl)Cl`, which TGI is on record?
Its TGI is over 100 µM.

Which TGI does the source give for `CCCCCCCCCCCCCCCCNc1cccc2ccccc12` here?
Its TGI is over 100 µM.

For `C=C(C(=O)OCC)C(=O)OCC`, which TGI is on record?
Its TGI is over 100 µM.

With `O=C1OCC/C1=N/O` as the compound, how does the TGI read?
The TGI was over 100 µM.

With `CSC1=N/C(=C\c2ccc(C)cc2)C(=O)N1CN1CCCCC1` as the compound, how does the TGI read?
Its TGI is over 100 µM.

Which TGI does the source give for `Cc1c(/C=N\NC(=S)NCCNC(=S)N/N=C\c2c(C)n(C)n(-c3ccccc3)c2=O)c(=O)n(-c2ccccc2)n1C` here?
The TGI was over 100 µM.

Which TGI does the source give for `CC(C)c1cc2c(c(O)c1O)[C@@]1(C(=O)O)CCCC(C)(C)[C@@H]1CC2` here?
The TGI was 33.7 µM.

With `Cc1c(O)nc(-n2[nH]c3c(c2=O)CCCC3)[nH]c1=O` as the compound, how does the TGI read?
The TGI was over 100 µM.

How did the TGI turn out when `CC(NC(=O)Cc1ccccc1)NC(=O)C(C)C(=O)Nc1ccccc1` (stereo unspecified) was run?
The TGI was over 100 µM.

`CC(C)(C)[Si](C)(C)OCC1OC(n2ccc(=O)[nH]c2=O)C(O[Si](C)(C)C(C)(C)C)/C1=C/C#N` (stereo unspecified) was tested. Which TGI did it give?
Its TGI is over 100 µM.

How did the TGI turn out when `C=C1CC(C#N)(C#N)[C@H]2C3CCCC3C[C@@H]12` (stereo partly specified) (tested in a mixture with another compound) was run?
The TGI was 53.6 µM.

Which TGI does the source give for `Nc1ccc(N=Nc2c(S(=O)(=O)O)cc3ccccc3c2S(=O)(=O)O)cc1` here?
The TGI was over 100 µM.

Test system: HL-60(TB) leukemia
Assay: NCI tumour cell line growth inhibition, 48 h

Which TGI does the source give for `CC1=CCC([C@@](C)(O)CCCC(C)(C)N=C=S)CC1` (stereo partly specified) here?
The TGI was 43.8 µM.

With `N[C@@H](Cc1ccccc1)C(=O)N1CCC[C@@H]1P(=O)(Oc1ccccc1)Oc1ccccc1` as the compound, how does the TGI read?
Its TGI is over 100 µM.

`Cc1ccc(/C=N\NC2c3cc(Cl)ccc3Nc3nc(=O)[nH]c(C)c32)cc1` (stereo unspecified) was tested. Which TGI did it give?
Its TGI is over 100 µM.

For `O=c1[nH][nH]c(=O)n1CCCCCCn1c(=O)[nH][nH]c1=O`, which TGI is on record?
Its TGI is over 100 µM.

Source: PubChem BioAssay (NCI)
